Laboratory results as given in patent US6642251B1, “Geometrically restricted 2-indolinone derivatives as modulators of protein kinase activity” (Sugen, Inc., priority 1998, dated 2003).
pIC50: −log10 of the molar value. Values joined by “and” are separate entries in the source; they are usually repeats but may differ in a detail not shown here. Identical values can stand only once. Like-named read-outs stand apart in the source and are kept apart here.

How the values were obtained:
PDGFR = target: T1, PDGFR (Homo sapiens, UniProt P09619); experiment: Biochemical PDGFR assay (bio PDGFR), ELISA
T1 construct: expressed in transfected cells; host or cells: NIH 3T3
Method: This assay measures the in vitro kinase activity of PDGFR using ELISA.
6. PDGFR-β expressing NIH 3T3 cell lysate (Screening Lab, SUGEN, Inc.).
1. Coat Corning 96 well ELISA plates with 0.5 μg 28D4C10 in 100 μl PBS per well, store overnight at 4° C.
2. Remove unbound 28D4C10 from wells by inverting plate to remove liquid. Wash 1× with dH2O. Pat the plate on a paper towel to remove excess liquid.
3. Add 150 μl of Blocking Buffer to each well. Incubate for 30 min. at room temperature with shaking.
4. Wash plate 3× with deionized water, then once with TBST. Pat plate on a paper towel to remove excess liquid and bubbles.
5. Dilute lysate in HNTG (10 μg lysate/100 μl HNTG)
6. Add 100 μl of diluted lysate to each well. Shake at room temperature for 60 min.
7. Wash plates as described in 4, above.
8. Add 80 μl working kinase buffer mix to ELISA plate containing captured PDGFR.
10. Add 10 μl diluted test compound to ELISA plate.
11. Incubate for 30 minutes while shaking at room temperature.
12. Add 10 μl ATP directly to all wells except negative control well (final well volume should be approximately 100 μl with 20 μM ATP in each well.) Incubate 30 minutes while shaking.
13. After 30 minutes, stop reaction by adding 10 μl of 200 mM EDTA (pH 8.0) to each well.
14. Wash 4× with deionized water, twice with TBST.
15. Add 100 μl anti-phosphotyrosine (1:3000 dilution in TBST) per well. Incubate 30-45 min. at room temperature, with shaking.
16. Wash as described in 4, above.
17. […] Incubate 30 min. at room temperature, with shaking.
18. Wash as described in 4, above.
19. Add 100 μl of ABTS/H2O2 solution to each well.
20. Incubate 10 to 30 minutes with shaking. Remove any bubbles.
21. If necessary stop reaction with the addition of 100 μl 0.2 M HCl per well.

EGFR = EGFR (Homo sapiens, UniProt P00533); experiment: Cellular EGFR assay (cell EGFR); type: cell-based; parameters: expressed in transfected cells; host or cells: NIH 3T3/C7; conditions: 50% inhibition of target PTK activity
Method: EGF Receptor kinase activity in cells genetically engineered to express human EGF-R can be measured as described below:
1. NIH 3T3/C7 cell line (Honegger, et al., Cell 51:199-209, 1987) can be use for this assay.
1. Check seeded cells for contamination using an inverted microscope. Dilute test compounds stock (10 mg/ml in DMSO) 1:10 in DMEM medium, then transfer 5 μl to a test well for a test compounds drug dilution of 1:200 and a final DMSO concentration of 1%. Control wells receive DMSO alone. Incubate in 5% CO2 at 37° C. for one hour.
2. Prepare EGF ligand: dilute stock EGF in DMEM so that upon transfer of 10 μl dilute EGF (1:12 dilution), 25 nM final concentration is attained.
3. Prepare fresh 10 ml HNTG* sufficient for 100 μl per well wherein HNTG* comprises: HNTG stock (2.0 ml), milli-Q H2O (7.3 ml), EDTA, 100 mM, pH 7.0 (0.5 ml), Na3VO4 0.5 M (0.1 ml) and Na4(P2O7), 0.2 M (0.1 ml).
5. After two hours incubation with drug, add prepared EGF ligand to cells, 10 μl per well, to yield a final concentration of 25 nM. Control wells receive DMEM alone. Incubate, shaking, at room temperature, for 5 minutes.
6. Remove test compound, EGF, and DMEM. Wash cells twice with PBS. Transfer HNTG* to cells, 100 μl per well. Place on ice for 5 minutes. Meanwhile, remove blocking buffer from other ELISA plate and wash with TBST as described above.
7. With a pipette tip securely fitted to a micropipettor, scrape cells from plate and homogenize cell material by repeatedly aspirating and dispensing the HNTG* lysis buffer. Transfer lysate to a coated, blocked, and washed ELISA plate. Incubate shaking at room temperature for one hour.
8. Remove lysate and wash 4 times with TBST. Transfer freshly diluted anti-Ptyr antibody to ELISA plate at 100 μl per well. […]
12. The maximal phosphotyrosine signal is determined by subtracting the value of the negative controls from the positive controls. The percent inhibition of phosphotyrosine content for extract-containing wells is then calculated, after subtraction of the negative controls.

[1] = 50% inhibition of target PTK activity, read-out: bio PDGFR IC50
[2] = bio PDGFR IC50, 50% inhibition of target PTK activity

T1 sequence (P09619 33-1106, species assumed): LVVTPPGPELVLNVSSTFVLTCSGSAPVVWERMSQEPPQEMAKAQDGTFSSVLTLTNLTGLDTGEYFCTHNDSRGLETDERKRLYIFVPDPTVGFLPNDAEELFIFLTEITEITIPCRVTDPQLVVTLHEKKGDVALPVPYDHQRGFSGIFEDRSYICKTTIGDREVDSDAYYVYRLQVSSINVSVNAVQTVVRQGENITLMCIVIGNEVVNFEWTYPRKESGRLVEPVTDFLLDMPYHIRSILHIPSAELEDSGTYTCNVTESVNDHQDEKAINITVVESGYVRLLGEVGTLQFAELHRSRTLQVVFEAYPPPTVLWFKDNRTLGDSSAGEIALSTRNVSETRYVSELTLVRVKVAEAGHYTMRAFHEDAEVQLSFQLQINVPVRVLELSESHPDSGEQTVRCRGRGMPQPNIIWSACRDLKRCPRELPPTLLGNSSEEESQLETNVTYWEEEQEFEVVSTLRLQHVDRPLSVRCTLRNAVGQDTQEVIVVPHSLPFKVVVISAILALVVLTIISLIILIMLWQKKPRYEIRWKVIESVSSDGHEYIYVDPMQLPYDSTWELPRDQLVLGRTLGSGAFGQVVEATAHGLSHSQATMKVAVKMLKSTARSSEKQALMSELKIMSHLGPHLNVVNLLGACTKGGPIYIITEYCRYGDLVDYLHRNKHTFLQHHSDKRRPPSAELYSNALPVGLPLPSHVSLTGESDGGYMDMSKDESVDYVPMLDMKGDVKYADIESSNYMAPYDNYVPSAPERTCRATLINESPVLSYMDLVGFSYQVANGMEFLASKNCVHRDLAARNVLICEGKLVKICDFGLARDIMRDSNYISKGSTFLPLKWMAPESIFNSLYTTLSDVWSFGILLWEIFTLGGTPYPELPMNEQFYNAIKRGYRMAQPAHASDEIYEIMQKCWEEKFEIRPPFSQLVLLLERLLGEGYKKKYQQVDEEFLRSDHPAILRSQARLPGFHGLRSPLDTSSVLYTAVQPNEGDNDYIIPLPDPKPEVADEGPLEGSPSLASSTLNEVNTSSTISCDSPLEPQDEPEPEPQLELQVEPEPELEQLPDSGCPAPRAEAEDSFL
Sequence of EGFR (P00533 25-1210): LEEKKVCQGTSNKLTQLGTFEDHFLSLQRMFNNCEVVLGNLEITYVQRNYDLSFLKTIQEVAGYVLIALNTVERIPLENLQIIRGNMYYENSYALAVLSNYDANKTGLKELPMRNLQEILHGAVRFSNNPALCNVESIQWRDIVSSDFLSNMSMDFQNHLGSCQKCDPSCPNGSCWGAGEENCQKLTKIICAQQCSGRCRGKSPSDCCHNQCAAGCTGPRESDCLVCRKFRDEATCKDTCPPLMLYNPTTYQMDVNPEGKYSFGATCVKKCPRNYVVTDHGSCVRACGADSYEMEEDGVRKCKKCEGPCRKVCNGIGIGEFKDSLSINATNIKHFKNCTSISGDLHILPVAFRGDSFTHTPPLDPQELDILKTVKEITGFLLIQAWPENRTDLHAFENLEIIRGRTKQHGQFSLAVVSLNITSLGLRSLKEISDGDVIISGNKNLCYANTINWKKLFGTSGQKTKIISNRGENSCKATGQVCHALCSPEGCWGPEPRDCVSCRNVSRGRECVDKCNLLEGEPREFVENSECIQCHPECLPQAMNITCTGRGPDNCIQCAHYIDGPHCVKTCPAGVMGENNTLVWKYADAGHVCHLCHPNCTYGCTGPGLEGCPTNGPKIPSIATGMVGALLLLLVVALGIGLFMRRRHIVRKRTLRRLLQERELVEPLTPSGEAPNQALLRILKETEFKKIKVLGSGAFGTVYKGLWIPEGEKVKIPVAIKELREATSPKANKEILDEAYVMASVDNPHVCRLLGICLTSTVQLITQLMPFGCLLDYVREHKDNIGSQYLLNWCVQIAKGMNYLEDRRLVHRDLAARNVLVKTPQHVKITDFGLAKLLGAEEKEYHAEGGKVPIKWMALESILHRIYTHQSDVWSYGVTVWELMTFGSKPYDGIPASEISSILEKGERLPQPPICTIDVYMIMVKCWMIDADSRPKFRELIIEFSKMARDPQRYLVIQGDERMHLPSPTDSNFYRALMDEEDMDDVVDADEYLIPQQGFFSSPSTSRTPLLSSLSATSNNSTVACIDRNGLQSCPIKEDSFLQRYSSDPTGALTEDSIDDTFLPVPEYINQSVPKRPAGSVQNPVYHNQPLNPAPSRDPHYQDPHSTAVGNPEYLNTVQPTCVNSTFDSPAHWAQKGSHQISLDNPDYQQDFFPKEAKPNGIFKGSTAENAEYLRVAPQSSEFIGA

Row | SMILES | pIC50 (PDGFR; [1]) | pIC50 (PDGFR; [2]) | pIC50 (EGFR)
1 | CC1C/C(=C2/C(=O)Nc3ccccc32)c2ccccc21 (centres unmarked) [Compound 1, 3-(3-methylindan-1-ylidene)-1,3-dihydroindol-2-one] | < 4.00 | – | –
2 | COc1ccc2c(c1)CC/C2=C1/C(=O)Nc2ccccc21 [Compound 3, 3-(5-Methoxyindan-1-ylidene)-1,3-dihydroindol-2-one] | – | 4.06 | –
3 | CN(C)c1ccc2c(c1)CC/C2=C1/C(=O)Nc2ccccc21 [Compound 5, 3-(5-Dimethylaminoindan-1-ylidene)-1,3-dihydroindol-2-one] | 4.29 | – | –
4 | O=C1Nc2ccccc2/C1=C1\CCc2cc(N3CCCCC3)ccc21 [Compound 8, 3-(5-Piperidin-1-yl-indan-1-ylidene)-1,3-dihydroindol-2-one] | < 4.00 | – | –
5 | COc1ccc2c(c1)C(CC(=O)O)C/C2=C1/C(=O)Nc2ccccc21 (centres unmarked) [Compound 11, [6-Methoxy-3-(2-oxo-1,2-dihydroindol-3-ylidene)-indan-1-yl]acetic Acid] | 5.82 | – | < 4.00
6 | COc1cc2c(cc1OC)/C(=C1\C(=O)Nc3ccccc31)CC2 [Compound 12, 3-(5,6-Dimethoxyindan-1-ylidene)-1,3-dihydroindol-2-one] | < 4.60 | – | –

Second part, the compound after the results:

Row | pIC50 (PDGFR; [1]) | pIC50 (PDGFR; [2]) | pIC50 (EGFR) | SMILES
7 | < 4.00 | – | – | Cc1cccc2c1CC/C2=C1/C(=O)Nc2ccccc21 [Compound 2, 3-(4-Methylindan-1-ylidene)-1,3-dihydroindol-2-one]
8 | < 4.00 | – | – | O=C1Nc2ccccc2/C1=C1\CCc2cc(Cl)ccc21 [Compound 7, 3-(5-Chloroindan-1-ylidene)-1,3-dihydroindol-2-one]
9 | < 4.00 | – | – | O=C1Nc2ccccc2/C1=C1\CCc2cc(Br)ccc21 [Compound 9, 3-(5-Bromoindan-1-ylidene)-1,3-dihydroindol-2-one]
10 | 4.20 | – | < 4.00 | O=C1Nc2ccccc2/C1=C1\CCc2ccccc21 [Compound 10, 3-Indan-1-ylidene-1,3-dihydroindol-2-one]
11 | – | 6.00 and 5.49 | < 4.00 | COc1ccc2c(c1)C(CC(=O)[O-])CC2=C1C(=O)Nc2ccccc21.[Na+] (centres unmarked) [Compound 13, [6-Methoxy-3-(2-oxo-1,2-dihydroindol-3-ylidene)-indan-1-yl]acetic Acid Sodium Salt]
